{"source": "patent WO2005058299A1", "about": "“Phenethanolamine derivatives for treatment of respiratory diseases” (Glaxo Group Ltd, priority 2003, dated 2005)", "origin": "cited, not measured here", "data": [{"test_system": "PDE4", "conditions": "IC50 for PDE4 form which binds rolipram with high affinity divided by IC50 for form which binds rolipram with low affinity", "values": [{"molecule": "COC(=O)C1CC(C#N)(c2ccc(OC(F)F)c(OCC3CC3)c2)CCC1=O", "note": "(stereo not drawn) [2-carbomethoxy-4-cyano-4-(3-cyclopropylmethoxy-4-difluoromethoxyphenyl)cyclohexan-1-one]", "IC50 ratio": "≥ 0.1"}, {"molecule": "COc1ccc([C@]2(C#N)CC[C@@H](C(=O)O)CC2)cc1OC1CCCC1", "note": "[cis 4-cyano-4-(3-cyclopentyloxy-4-methoxyphenyl)cyclohexan-1-carboxylic acid]", "IC50 ratio": "≥ 0.1"}, {"molecule": "c/s-[4-cyano-4-(3-cyclopropylmethoxy-4- difluoromethoxyphenyl)cyclohexan-1-ol]", "IC50 ratio": "≥ 0.1"}]}]}
